Test system: DCAF16 KO SU-DHL-4 cells
Assay: Inhibitory effect on cell viability using SU-DHL-4 DCAF16 knock out (KO) cell line (Test Example 6)
Format: cell-based, human
Details: for Activity Attenuation Ratio: (SU-DHL-4 DCAF16 KO IC50)/(SU-DHL-4 WT IC50); for IC50: DCAF16 KO SU-DHL-4 cells, 72 hours, Cell Counting Kit-8, 50% inhibition of cell viability
Description: The human DLBCL cell line SU-DHL-4 was purchased from DSMZ. SU-DHL-4 was passaged using RPMI1640 medium containing 10 vol % FBS. After the Cas9 gene was introduced, the cells were cultured in the above medium containing 0.01 mg/mL blasticidin (InvivoGen, Cat No. ant-bl-1). After introduction of sgRNA, the cells were cultured in the above medium containing 0.0001 mg/mL puromycin dihydrochloride (SIGMA, Cat No. P9020-10 ML). The culture conditions were 37° C. and 5% CO2.
Edit-R Lentiviral hEF1α-Blast-Cas9 Nuclease Particles (Cat No. VCAS10126) was used as a lentivirus for expressing Cas9 in human cell lines. Three types of Edit-R Human DCAF16 Lentiviral sgRNA (Cat No. VSGH10142-246568260; DNA target sequence […] (SEQ ID NO: 1), Cat No. VSGH10142-246568262; DNA target sequence […] (SEQ ID NO: 2) and Cat No. VSGH10142-246568263; DNA target sequence […] (SEQ ID NO: 3)) were used as lentiviruses for introducing DCAF16 sgRNA. As a control, Edit-R Lentiviral sgRNA Non-targeting Control #1 (Cat No. VSGC10215) was used. All lentiviruses were purchased from Dharmacon and stored at −80° C. until use.
SU-DHL-4 was suspended at 4×10^5 cells/mL in RPMI 1640 without FBS, 0.25 mL of the suspension was added to a 24-well plate, and the cells were cultured overnight. The next day, 0.003 mL of virus particles of Edit-R Lentiviral hEF1α-Blast-Cas9 Nuclease Particles was added. After culturing in a CO2 incubator for 4 hours, RPMI 1640 containing 0.75 mL of 10 vol % FBS was added. After culturing in a CO2 incubator for about 48 hours, the medium was replaced with RPMI1640 containing 10 vol % FBS, and the cells were cultured in a CO2 incubator. Four days after infection, the medium was replaced with a medium containing 0.01 mg/mL blasticidin (InvivoGen, Cat No. ant-bl-1). Then, the cells were passaged once every 2 to 3 days and thus twice in total (that is, cultured for 1 week) to obtain SU-DHL-4/Cas9, which is a Cas9-introduced SU-DHL-4 cell line.
(6) sgRNA infection SU-DHL-4/Cas9 was suspended at 4×10^5 cells/mL in RPMI 1640 without FBS, 0.25 mL of the suspension was added to a 24-well plate, and the cells were cultured overnight. The next day, a total of 4 types of sgRNA virus particles, 1 type of Control and 3 types targeting DCAF16 were added to the respective wells by 0.03 mL. After culturing in a CO2 incubator for 5 hours, RPMI 1640 containing 0.75 mL of 10 vol % FBS was added.
After culturing in a CO2 incubator for about 48 hours, the medium was replaced with RPMI1640 containing 10 vol % FBS, and the cells were cultured in a CO2 incubator. Four days after infection, the medium was replaced with a medium supplemented with 0.01 mg/mL puromycin dihydrochloride (SIGMA, Cat No. P9020-10 ML). Then, the cells were passaged once or twice a week for 2 weeks, and a cell stock was prepared using CELLBANKER I plus (Takara Bio, Cat No. CB-021). Cell line stock was stored at −80° C. Using Edit-R Lentiviral sgRNA Non-targeting Control #1, the Negative Control sequence was introduced into the SU-DHL-4 cell line, which was referred to as SU-DHL-4 NC strain, and using Edit-R Human DCAF16 Lentiviral sgRNA, […] sequence (SEQ ID NO: 1) was introduced into the SU-DHL-4 cell line, which was referred to as SU-DHL-4 DCAF16 KO1 strain, […] sequence (SEQ ID NO: 2) was introduced into the SU-DHL-4 cell line, which was referred to as SU-DHL-4 DCAF16 KO2 strain, and […] sequence (SEQ ID NO: 3) was introduced into the SU-DHL-4 cell line, which was referred to as SU-DHL-4 DCAF16 KO 3 strain.
The cultured DCAF16 KO SU-DHL-4 cells were seeded at 2000 cells/well in a transparent 384-well plate (Code No. 781182, Greiner bio-one). After seeding, the cells were pre-cultured at 37° C. in a carbon dioxide gas incubator for 18 to 25 hours. […]

SMILES | Activity Attenuation Ratio | IC50 (Homo sapiens) [nM] | IC50 [nM]
CCC(=O)N1c2ccccc2[C@H](Nc2ccc(C(=O)NCc3cn(-c4ccc(N[C@@H]5C[C@H](C)N(C(=O)CC)c6ccccc65)cc4)nn3)cc2)C[C@@H]1C [Compound 3a, 4-{[(2S,4R)-2-Methyl-1-propionyl-1,2,3,4-tetrahydroquinolin-4-yl]amino}-N-{[1-(4-{[(2S,4R)-2-methyl-1-propionyl-1,2,3,4-tetrahydroquinolin-4-yl]amino}phenyl)-1H-1,2,3-triazol-4-yl]methyl}benzamide] | 263 | 6.58 | –
CCC(=O)N1c2ccccc2[C@H](Nc2ccc(NC(=O)CCSc3ccc(N[C@@H]4C[C@H](C)N(C(=O)CC)c5ccccc54)cc3)cc2)C[C@@H]1C (relative stereo) [Compound 4e, N-(4-{[(2S*,4R*)-2-Methyl-1-propionyl-1,2,3,4-tetrahydroquinolin-4-yl]amino}phenyl)-3-[(4-{[(2S,4R)-2-methyl-1-propionyl-1,2,3,4-tetrahydroquinolin-4-yl]amino}phenyl)thio]propanamide] | 250 | 75 | –
CCC(=O)N1c2ccccc2[C@H](Nc2ccc(NC(=O)C3CN(C(=O)C4CCN(Cc5cc(O)cc(-c6c(C)noc6C)c5)CC4)C3)cc2)C[C@@H]1C [Compound 12b, 1-(1-(3-(3,5-Dimethylisoxazol-4-yl)-5-hydroxybenzyl)piperidine-4-carbonyl)-N-(4-(((2S,4R)-2-methyl-1-propionyl-1,2,3,4-tetrahydroquinolin-4-yl)amino)phenyl)azetidine-3-carboxamide] | >3526 | > 10000 | –
CCC(=O)N1c2ccccc2[C@H](Nc2ccc(C(=O)NCCCNC(=O)c3ccc(C4=N[C@@H](CC(=O)OCCCOC)c5nnc(C)n5-c5sc(C)c(C)c54)cc3)cc2)C[C@@H]1C [Compound 13h, 3-Methoxypropyl 2-((S)-2,3,9-trimethyl-4-(4-((3-(4-(((2S,4R)-2-methyl-1-propionyl-1,2,3,4-tetrahydroquinolin-4-yl)amino)benzamide)propyl)carbamoyl)phenyl)-6H-thieno[3,2-f][1,2,4]triazolo[4,3-a][1,4]diazepin-6-yl)acetate] | 76 | – | 22.8
Cc1sc2c(c1C)C(c1ccc(C(=O)N3CCC(NC(=O)c4ccc(C5=N[C@@H](CC(=O)OC(C)(C)C)c6nnc(C)n6-c6sc(C)c(C)c65)cc4)CC3)cc1)=NCc1nnc(C)n1-2 [Compound 14p, tert-Butyl (S)-2-(2,3,9-trimethyl-4-(4-((1-(4-(2,3,9-trimethyl-6H-thieno[3,2-f][1,2,4]triazolo[4,3-a][1,4]diazepin-4-yl)benzoyl)piperidin-4-yl)carbamoyl)phenyl)-6H-thieno[3,2-f][1,2,4]triazolo[4,3-a][1,4]diazepin-6-yl)acetate] | 408 | 407 | –
CCC(=O)N1c2ccccc2[C@H](Nc2ccc(C(=O)NCCNS(=O)(=O)c3ccc(N[C@@H]4C[C@H](C)N(C(=O)CC)c5ccccc54)cc3)cc2)C[C@@H]1C [Compound 4d, 4-{[(2S,4R)-2-Methyl-1-propionyl-1,2,3,4-tetrahydroquinolin-4-yl]amino}-N-{2-[(4-{[(2S,4R)-2-methyl-1-propionyl-1,2,3,4-tetrahydroquinolin-4-yl]amino}phenyl)sulfonamide]ethyl}benzamide] | 365 | – | 1530
CCC(=O)N1c2ccccc2[C@H](Nc2ccc(NC(=O)C#CCNC(=O)C3CCC(N[C@@H]4C[C@H](C)N(C(=O)CC)c5ccccc54)CC3)cc2)C[C@@H]1C (relative stereo) [Compound 8g, (1R,4r)-4-(((2S*,4R*)-2-Methyl-1-propionyl-1,2,3,4-tetrahydroquinolin-4-yl)amino)-N-(4-((4-(((2S,4R)-2-methyl-1-propionyl-1,2,3,4-tetrahydroquinolin-4-yl)amino)phenyl)amino)-4-oxobut-2-yn-1-yl)cyclohexane-1-carboxamide] | 3174 | – | 26

— US20220378923A1, “BET DEGRADER” (KYOWA KIRIN CO., LTD., priority 2019, published 2022)
